Earlier results, collected in article PMC5796656 (Journal of the American Chemical Society, 2015).

Settings: ref [26]

O=C([O-])CN1CCN(CC(=O)[O-])CCN(CC(=O)[O-])CCN(CC(=O)[O-])CC1.[Gd+3] [GdDOTA]
τM: 243 ns
